# Experimental data from PubChem BioAssay AID489040 (Sanford-Burnham Center for Chemical Genomics, 2010).
# Activity calls are given as the source filed them.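 Rule for the calls: active = mean half-maximal activating concentration from the dose-response fit at or below a set limit; inactive = the rest.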
# Target: CHO-XBP1 luciferase reporter, IRE1-XBP1 UPR activation
# Test: XBP1 luciferase reporter activation – CHO-XBP1 cells, luminescence, counter-screen for apoptotic UPR arm activators, dose response (AID 489040);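 note: reporter read after six hours of compound exposure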
row,SMILES,EC50
1,Oc1c(CN2CCN(c3ccc(F)cc3)CC2)cc(Cl)c2cccnc12,> 80 µM (inactive)
2,O=C(Nc1ccc(Cl)cc1)/C(=C/c1cccc(O)c1)c1nc2ccccc2s1,> 80 µM (inactive)
3,CC1=CC(C)(C)Nc2ccc(OC(=O)CN3C(=O)CCC3=O)cc21,> 80 µM (inactive)
4,O=C(Nc1ccc(O)c2c(=O)cc(-c3cccc(Cl)c3)oc12)c1ccccc1Cl,> 80 µM (inactive)
5,COCc1ccc(O)c2ncccc12,inactive
6,O=C(CSc1ccc2ccccc2c1)NCCc1ccc(O)c(O)c1,> 80 µM (inactive)
7,CCc1cc2c(=O)c(-c3cnn(-c4ccccc4)c3)c(C)oc2cc1OCC(=O)Nc1cccc(C)c1,inactive
8,COc1cc(C(=O)Sc2ccc(Cl)cc2)cc(OC)c1OC,> 80 µM (inactive)
9,N#CC1=C(N)OC2=C(CC/C2=C\c2ccccc2)C1c1ccccc1 (centres undefined),> 80 µM (inactive)
10,CCOc1cc(C=C(C(=O)OC)C(=O)OC)ccc1OCc1ccc([N+](=O)[O-])cc1,> 80 µM (inactive)
11,C/C(=N/NC(=O)c1ccc(C(C)(C)C)cc1)c1ccccn1,> 80 µM (inactive)
12,COc1ccc(N2C(=O)/C(=C/c3cccs3)C(=O)NC2=S)cc1,> 80 µM (inactive)
13,CCOC(=O)c1cc(-c2ccc(/C=C3/C(=O)N(c4ccc(C(=O)O)cc4)N=C3C)o2)ccc1Cl,> 80 µM (inactive)
14,O=C(N/N=C/c1ccccn1)c1cc(-c2ccc(Br)cc2)nc2ccccc12,> 80 µM (inactive)
15,CCCCCOc1ccc(N2C(=O)CC(N(O)c3ccccc3)C2=O)cc1 (centres undefined),> 80 µM (inactive)
16,Cc1cccc(-n2c(/C=C/c3ccc([N+](=O)[O-])o3)nc3ccccc3c2=O)c1,> 80 µM (inactive)
17,CCc1ccc(NC(=O)C(CC)Sc2nc3cc4c(cc3c(=O)n2Cc2ccco2)OCO4)cc1 (centres undefined),> 80 µM (inactive)
18,COc1ccc(N2CCN(Cc3cc(=O)oc4cc(-c5ccccc5)c(O)cc34)CC2)cc1,> 80 µM (inactive)
19,C/C(=N\Nc1ncnc2sc(C)c(C)c12)c1ccccn1,inactive
20,O=C(CSC(=S)N1CCCC1)c1cc(Br)cc(Br)c1O,> 80 µM (inactive)
21,O=C(/C=C/c1ccco1)NC(=S)Nc1ccc(O)c(-c2nc3ccccc3s2)c1,9.84 µM
22,CCCCCCCC(=O)Nc1ccc(C(=O)N/N=C/c2cccc([N+](=O)[O-])c2)cc1,17.5 µM
23,c1ccc(CSC2=NNC(c3ccccn3)S2)cc1 (centres undefined),> 80 µM (inactive)
24,CCOC(=O)C1=C(CCl)NC(=O)NC1c1ccc2c(c1)OCO2 (centres undefined),> 80 µM (inactive)
25,Cc1[nH]c2ccccc2c1CN1CCC(Cc2ccccc2)CC1,> 80 µM (inactive)

row,SMILES,EC50
1,CC(C)(C)C(=O)NC(=S)NNC(=O)c1ccc(-c2ccccc2)cc1,9.6 µM
2,Cc1cccc(C)c1NC(=O)c1nc(S(=O)(=O)Cc2ccccc2)ncc1Cl,> 80 µM (inactive)
3,O=CC1=C(c2ccccc2)Oc2ccccc2O1,> 80 µM (inactive)
4,C[C@@H]1CN([C@H](C)CO)C(=O)c2cc(NC(=O)Nc3ccc(C(F)(F)F)cc3)ccc2O[C@H]1CN(C)Cc1ccc(Cl)c(Cl)c1,> 80 µM (inactive)
5,O=C1NN(c2cccc(Br)c2)C(=O)/C1=C/c1cccs1,8.89 µM
6,Nc1nc(CC(=O)CSc2ccc(Cl)cc2)nc(Nc2ccc(F)cc2)n1,> 80 µM (inactive)
7,CC(C)(C)c1ccc(/C=C(\c2nc3ccccc3[nH]2)S(=O)(=O)c2ccccc2)cc1,> 80 µM (inactive)
8,O=C(Nc1nc(-c2ccc(F)c(F)c2)cs1)Nc1ccc(F)cc1F,> 80 µM (inactive)
9,CCc1cc(C(=O)c2ccc(C)cc2)c(NC(=O)CCl)s1,> 80 µM (inactive)
10,Nc1c(C(=O)Nc2ccc(S(=O)(=O)N3CCCC3)cc2)sc2nc3ccc(OC(F)(F)F)cc3cc12,> 80 µM (inactive)
11,Oc1ccc(CN2CCc3ccccc3C2)c2cccnc12,> 80 µM (inactive)
12,Cc1ccc(Nc2nc(-c3ccc(O)c(O)c3)cs2)nc1,> 80 µM (inactive)
13,CC(=O)Nc1ccc(N=Cc2c(O)c(C(=O)Nc3ccccc3)cc3ccccc23)cc1,inactive
14,COc1ccc(/C=N/Nc2cc(C)nc(-n3nc(C)cc3C)n2)cc1,> 80 µM (inactive)
15,Cn1c(/C=C/c2ccc([N+](=O)[O-])o2)nc2ccccc2c1=O,> 80 µM (inactive)
16,COC(=O)c1cc(=O)n(CCc2ccc(OC)cc2)c(=Nc2ccc(F)c(Cl)c2)s1,> 80 µM (inactive)
17,COc1ccccc1/C=N\Nc1cc(C)nc(-n2nc(C)cc2C)n1,> 80 µM (inactive)
18,OCCNc1nc(Nc2ccc(Br)cc2)nc2ccccc12,5.17 µM
19,O=C(C[C@H]1C[C@H](C(=O)N2CCCCC2)[C@@]2(CCc3ccccc3)c3[nH]c4ccc(Cl)cc4c3CCN2C1=O)NCCC1=CCCCC1,inactive
20,COc1ccc(CCn2c(C)cc(C(=O)CCl)c2C)cc1OC,> 80 µM (inactive)
21,Cc1cc(C(=O)CCl)c(C)n1Cc1ccco1,> 80 µM (inactive)
22,O=C(CCl)c1ccc(Cc2ncc(C(F)(F)F)cc2Cl)s1,> 80 µM (inactive)
23,Cc1noc2ncnc(Sc3ccc(Cl)cc3)c12,> 80 µM (inactive)
24,COc1ccc2c(c1)CCc1c(C(=O)Nc3cc(C)n(Cc4ccc(Cl)cc4)n3)noc1-2,> 80 µM (inactive)
